Reference: US8633161B2, “Therapeutic agents for the treatment of leukemia” (The Ohio State University Research Foundation, priority 2005, dated 2014)

Columns and labels:
[1] = tested on: untransduced 32Dc13 cells and primary normal bone marrow cells; assay: FTY720 on cells not expressing the oncogene; format: cell-based; details: untransduced 32Dc13 cells and primary normal bone marrow cells from healthy donors; FTY720 2.5 μM
Experimental: (§1) We obtained FTY720 synthesized using previously published methods (see Budde, K., et al., First human trial of FTY720, a novel immunomodulator, in stable renal transplant patients. J Am Soc Nephrol, (2002) 13:1073-83). Cells in liquid culture and in methylcellulose colony assays were cultured in the presence of 2.5 μM FTY720. SCID mice were i.v. injected with 5×10^5 T315I BCR/ABL-transduced 32Dc13 cells and levels of BCR/ABL in the peripheral blood were assessed by nested reverse transcriptase PCR. Upon establishment of a leukemia-like disease, mice were i.p. injected daily with FTY720 (250 μg/mouse/day). The disease process was monitored weekly by nested reverse transcriptase PCR. Apoptosis was assessed by AnnexinV/PI staining on untreated vs. treated cells.

BCR/ABL = assay: Western blot of BCR/ABL activity (phosphotyrosine) and expression; format: cell-based; details: upon treatment with FTY720 2.5 μM
Experimental: Cells (10^7) were lysed in 100 μl of RIPA buffer (150 mM NaCl, 1% NP-40, 0.1% SDS, 50 mM Tris [pH 8.0]) supplemented with 1 mM PMSF, 25 μg/ml aprotinin, 10 μg/ml leupeptin, 100 μg/ml pepstatin A, 5 mM benzamidine, 1 mM Na3VO4, 50 mM NaF, 10 mM β-glycerol-phosphate. After incubation on ice (30 min), lysates were clarified (12,000×g, 15 min, 4° C.), denatured, and subjected to SDS-PAGE and Western blot (Iervolino et al., 2002). The antibodies used were goat polyclonal anti-SET(I2PP2A), -pp32(I1PP2A), and -hnRNP A1 and rabbit polyclonal anti-SHP-1 (Santa Cruz Biotechnology); monoclonal anti-Abl (Ab-3), -c-myc (Ab-2), -phosphotyrosine PY20 (Ab-4), and -pBAD^S112 (Ab-1) (EMD); monoclonal anti-hnRNP A1 (9H10) (G. Dreyfuss, University of Pennsylvania, Philadelphia, Pa.); monoclonal anti-GRB2 and -Rb (BD TransLab Inc.); monoclonal anti-HA (Covance); monoclonal anti-PP2Ac, clone 1D6 (Upstate Inc.); monoclonal anti-FLAG, clone M2 (Sigma); monoclonal anti-pERK^T202/Y204 and rabbit polyclonal anti-pAKT^T308, pSTAT5^Y694, -pJak2^Y1007/1008, -Jak2, -BAD, -Akt, and -ERK1/2 (Cell Signaling Technology Inc.); monoclonal anti-STATS (Invitrogen); rabbit monoclonal anti-pPP2A^Y307 (Epitomics); rabbit polyclonal anti-PR65/A (Calbiochem). IPs were carried out in 20 mM HEPES (pH 7.0), 150 mM NaCl, and 0.2% NP-40 supplemented with protease and phosphatase inhibitors. Lysates were precleared and immunoprecipitated with Ab-coated beads for 3 hr at 4° C. After washings, IPs were subjected to SDS-PAGE and Western blot.

Akt = assay: Western blot of phosphorylated and total Akt; format: cell-based; details: FTY720-treated 32D-BCR/ABL cells
[2] = tested on: T315I BCR/ABL-transduced 32Dc13 cells; format: in vivo
Experimental: as §1

PP2A = target: T1, PP2A (Mus musculus, UniProt P63330); assay: PP2A IP phosphatase assay on lysates of treated cells; format: cell-based; details: FTY720 2.5 μM, BCR/ABL-transformed cell lines
T1 construct: endogenous in cells; host or cells: 32Dc13, 32D-BCR/ABL, 32D-BCR/ABL-T315I, 32D-p210 Y253H, BaF3-p210 T315I, K562, primary CML-BC CD34+ and NBM CD34+ cells
Experimental: PP2A phosphatase assays were carried out using the PP2A IP phosphatase assay kit (Upstate). Briefly, protein lysates (50 μg) in 100 μl of 20 mM HEPES (pH 7.0)/100 mM NaCl, 5 μg of PP2Ac antibody (Upstate), and 25 μl of Protein A-agarose were added to 400 μl of 50 mM Tris (pH 7.0)/100 mM CaCl2, and IPs were carried out at 4° C. for 2 hr. IPs were washed and used in the phosphatase reaction according to the manufacturer's protocol. Specificity of the PP2A assay was assessed by titration with okadaic acid and by ascertaining the absence of PP1a in the PP2A immunoprecipitates (Figure S2A). As internal control, the amount of immunoprecipitated PP2A was also monitored by anti-PP2Ac Western blots (Figure S2B).

[3] = tested on: primary CML-BC, p210-BCR/ABL and p190-BCR/ABL expressing cell lines; assay: FTY720 in vitro: proliferation, clonogenic potential and apoptosis of BCR/ABL-expressing cells; format: cell-based; details: 2.5 μM FTY720, imatinib-sensitive and -resistant p210 and p190 cell lines
Text: We studied the in vitro effect of FTY720 and derivative compounds on proliferation rate, clonogenic potential, and apoptosis in imatinib-sensitive and -resistant p210-BCR/ABL-expressing cells and p190-BCR/ABL-expressing cells. We then investigated the in vivo antileukemic potential of FTY720 in a mouse-model of imatinib-resistant CML-BC,
as §1

How did the “inhibitory effect on cells not expressing the oncogene” value [1] turn out when `CCCCCCCCc1ccc(CCC(N)(CO)CO)cc1` [FTY720] was run?
The value was “no effect was detected”.

And the BCR/ABL activity (BCR/ABL)?
Its BCR/ABL activity is “inactivated”.

What about the Akt phosphorylation/activity (Akt) of the same molecule?
The Akt phosphorylation/activity was “Dephosphorylation and inactivation”.

What about the mice alive ([2]; FTY720 250 μg/mouse/day i.p., after 20 weeks of treatment) of the same molecule?
Its mice alive is “more than 50%”.

What about the signs of toxicity ([2]; control group that received only the drug) of the same molecule?
Its signs of toxicity is “no signs of toxicity”.

And the “expression of PP2A protein levels” value (PP2A)?
The value was “without increased expression”.

And the PP2A activity (PP2A; prior to induction of apoptosis)?
The PP2A activity was “induces”.

What about the “growth, apoptosis and clonogenic potential” value [3] of the same molecule?
The value was “significant growth inhibition, apoptosis and impaired clonogenic potential”.
